In PMC12435844, “cGAS activation converges with intracellular acidification to promote STING aggregation and pyroptosis in tumor models” (The Journal of Clinical Investigation, 2025):

Tests used:
[1] = target: T1, cyclophilin D (CypD) (Homo sapiens, UniProt P30405); assay: SPR; also FL-DSF (KD […]) and CETSA on immunoprecipitated CypD; type: binding
T1 construct: gene PPIF

[2] = target: T1, cyclophilin D (CypD); assay: photoactive click probe in A375 cells, azide-biotin conjugation, streptavidin pull-down and Western blot; type: cell-based
[3] = target: STING (UniProt Q86WV6); assay: co-immunoprecipitation; settings: reference: PERK wild type; sites T982

T1 sequence (P30405 30-207): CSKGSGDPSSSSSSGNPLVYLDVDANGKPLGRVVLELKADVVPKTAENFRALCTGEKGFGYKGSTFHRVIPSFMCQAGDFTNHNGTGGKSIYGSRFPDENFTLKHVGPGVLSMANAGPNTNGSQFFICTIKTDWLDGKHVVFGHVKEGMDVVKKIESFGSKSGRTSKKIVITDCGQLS

## CCCCCCCCCCCCOC(=O)c1ccc2cc(O)ccc2c1 [DHN, dodecyl 6-hydroxy-2-naphthoate]
[1]
  Kd: 1.19 ± 0.068 µM

## C#CCCC1(CC(=O)OCCCCCOC(=O)c2ccc3cc(O)ccc3c2)N=N1 [DHN-P]
[2]
  photoactive click probe in A375 cells, azide-biotin conjugation, streptavidin pu: DHN-P could effectively pull down CypD but not other components in the mPTP complex

## PERK (from UniProt Q9NZJ5) PERK T982A
[3]
  binding against the reference: lost
